Columns and labels:
Smo receptor = target: T1, Smo receptor (Homo sapiens, UniProt Q99835); assay: Bodipy-Cyclopamine specific binding curve, Smo-FLAG transfected cell line clone 3-5; settings: stable Smo-FLAG transfected cell line clone 3-5
T1 construct: expressed in transfected cells; template pCMV6-XL5-Smo, Origene cat; TC122724

[1] = system: 293FlpIN/clone E-3 mock transfected cells; assay: Bodipy-Cyclopamine specific binding curve, mock transfected cell line clone E-3; settings: stable mock transfected cell line clone E-3

T1 sequence (Q99835 28-787): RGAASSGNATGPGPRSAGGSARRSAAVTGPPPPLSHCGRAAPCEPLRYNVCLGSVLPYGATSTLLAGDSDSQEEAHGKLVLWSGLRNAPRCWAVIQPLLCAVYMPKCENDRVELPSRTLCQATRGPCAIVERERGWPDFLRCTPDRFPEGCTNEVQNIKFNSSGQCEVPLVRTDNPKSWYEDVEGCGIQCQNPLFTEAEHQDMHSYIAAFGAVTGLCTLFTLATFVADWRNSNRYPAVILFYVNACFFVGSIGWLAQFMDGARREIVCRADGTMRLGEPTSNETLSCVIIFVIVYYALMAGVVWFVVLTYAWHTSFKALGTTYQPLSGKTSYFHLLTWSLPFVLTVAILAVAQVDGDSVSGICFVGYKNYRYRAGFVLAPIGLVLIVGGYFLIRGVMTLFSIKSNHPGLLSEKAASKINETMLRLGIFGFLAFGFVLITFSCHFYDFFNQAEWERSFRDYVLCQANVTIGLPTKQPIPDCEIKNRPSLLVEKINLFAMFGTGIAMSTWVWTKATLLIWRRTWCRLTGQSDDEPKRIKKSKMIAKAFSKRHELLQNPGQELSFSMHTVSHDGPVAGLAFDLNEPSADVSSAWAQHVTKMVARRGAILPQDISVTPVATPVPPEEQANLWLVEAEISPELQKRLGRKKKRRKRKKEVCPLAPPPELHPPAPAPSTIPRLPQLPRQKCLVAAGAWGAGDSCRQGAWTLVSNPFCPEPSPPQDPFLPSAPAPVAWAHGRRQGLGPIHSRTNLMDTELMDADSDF

SMILES: CC1=C2CC3C(CC=C4C[C@@H](O)CCC43C)C2CCC12O[C@@H]1CC(C)CN(CCNC(=O)CCCCCNC(=O)CCC3=[N+]4C(=Cc5c(C)cc(C)n5[B-]4(F)F)C=C3)C1C2C (some centres unmarked) [Bodipy-Cyclopamine]
- Kd (Smo receptor): 44.3 nM
- Kd [1]: 115 nM

Source: patent US8835648B2, “Hedgehog pathway antagonists and therapeutic applications thereof” (Siena Biotech S.p.A., priority 2009, dated 2014)
